The subject of one experiment is HSV-1 McKrae Strain. Description: Direct virucidal efficacy against HSV-1 on HFF monolayers. In kind it is cell-based. The settings on record: for effective virucidal concentration IC50 / effective virucidal concentration IC90: HSV-1. How it is done: HSV-1 McKrae Strain was diluted to a final concentration of 10^5 PFU/ml in minimal essential medium (MEM). Hereinafter, this dilution is referred to as the HSV-1 Suspension for convenience.
With sufficient stirring, all the compounds completely dissolved.
Each of the drug solutions were mixed with the HSV-1 Suspension in a 1:1 ratio. The drug and HSV-1 Suspension mixture was incubated at 37° C. for thirty minutes with agitation every ten minutes. After the incubation, fifty microliter aliquots were overlaid onto triplicate confluent human foreskin fibroblast (HFF) cell monolayers. The inoculum was absorbed for thirty minutes and then a medium containing the appropriate drug concentration in MEM was added to the monolayers to a final volume of 0.5 milliliters per culture-well. The monolayers were incubated at 37° C. The developing HSV-1 Cytopathology was monitored daily for two days by inverted light microscopy. Titers were calculated by multiple regression analysis. All data is presented as the average PFU/ml reduction at 24 and/or 48 hours after inoculation (PI).
1. HSV-1 inoculated, non-compound treated HFF monolayers were included as "positive controls"; and […]

The next experiment relates to HSV-2 (MS strain). As to the kind of experiment: External genital lesion development in primary genital HSV-2 infection of guinea pigs. The class given is in vivo, Female Hartley strain guinea pigs. Set-up: key to Lesion Score-Day Area Under Curve: area under 0-5+ lesion score vs day curve (score-days); key to Mean Peak Lesion Score: lesion severity on 0-5+ scale. The settings on record: 20 mg/ml. Here is the method: A series of studies were carried out to compare the activity of inventive antiviral Compounds 23, 76, and 82 in a primary genital HSV-2 infection of guinea pigs. The experiments were placebo-controlled and uninfected animals were treated with three concentrations of each of the preparations to assess skin irritation and determine the maximum tolerated dose.
The MS strain of HSV-2 was utilized for the experimental animal infection. Female Hartley strain guinea pigs (Charles River Breeding Laboratories, Kingston, N.Y.) weighing 250-300 g were inoculated intravaginally with 1.4×10^5 plaque forming units of HSV-2 one hour after being swabbed for the removal of vaginal secretions.
Groups of 10 infected guinea pigs were treated topically as stated above with 20 mg/ml (the maximum tolerated dose) of each compound beginning 6 h or 24 h after inoculation with HSV-2.
To determine the effect of therapy on the development and spread of external genital lesions, lesion severity was scored on a 0-5+ scale through the primary infection (21 days). Mean peak lesion scores and the areas under the lesion score-day curves were calculated and analyzed.
The number of animals infected over the number inoculated, lesion score-day areas and virus titer-day areas under the curve, peak lesion scores and peak virus titers between untreated and placebo-treated or placebo-treatedand drug-treated animals were compared using the Mann-Whitney U rank sum test. A p-value of 0.05 or less was considered significant.

Experimental findings from US5756491A, “Antiviral cobalt-organic compounds” (priority 1991, dated 1998) are described below.

Turning to `CC([O-])=CC(C)=NCCN=C(C)C=C(C)[O-].[Cl-].[Co+3].c1c[nH]cn1.c1c[nH]cn1` [Compound 82], the “virucidal efficacy (HSV-1 titer)” value in the experiment with HSV-1 McKrae Strain (Experiment 1 (Table 2), 24 h PI, 0.001 mg/ml) was 10^5 PFU/ml; with HSV-1 McKrae Strain (Experiment 1 (Table 2), 24 h PI, 0.1 mg/ml) it was 10^2 PFU/ml; in the experiment on HSV-1 McKrae Strain (Experiment 1 (Table 2), 24 h PI, 10 mg/ml) it was 0 PFU/ml; in the experiment with HSV-1 McKrae Strain (Experiment 1 (Table 2), 24 h PI, .01 mg/ml), 10^4 PFU/ml; with HSV-1 McKrae Strain (Experiment 1 (Table 2), 48 h PI, 1 mg/ml), 10^5 PFU/ml; with HSV-1 McKrae Strain (Experiment 1 (Table 2), 48 h PI, 10 mg/ml), “O/T”. For the same molecule, the “virucidal efficacy (HSV-1 titer)” value is given as 10^4 PFU/ml in the experiment with HSV-1 McKrae Strain (Experiment 2 (Table 5), 24 h PI, 0.001 mg/ml); 10^2 PFU/ml in the experiment with HSV-1 McKrae Strain (Experiment 2 (Table 5), 24 h PI, 0.1 mg/ml); 0 PFU/ml with HSV-1 McKrae Strain (Experiment 2 (Table 5), 24 h PI, 10 mg/ml); 10^5 PFU/ml with HSV-1 McKrae Strain (Experiment 2 (Table 5), 48 h PI, 1 mg/ml). Further, the “effective virucidal concentration IC50” value with HSV-1 McKrae Strain (Experiment 1 (Table 3)) and with HSV-1 McKrae Strain (Experiment 2 (Table 6)) was 100 µg/mL in each case. Further, the “effective virucidal concentration IC90” value with HSV-1 McKrae Strain (Experiment 1 (Table 3)) and in the experiment on HSV-1 McKrae Strain (Experiment 2 (Table 6)) was 1000 µg/mL each time. Besides, the “virucidal efficacy (IC50) compared with 23 and 76” value with HSV-1 McKrae Strain (Experiment 1 comment, less than that observed for 23 and 76) was “one order of magnitude less”. The figures for the “Lesion Score-Day Area Under Curve” value in the experiment with HSV-2 (MS strain) (started +6h) and in the experiment with HSV-2 (MS strain) (started +24h) were 3.5 and 53.8, respectively. The “Mean Peak Lesion Score” value amounted to 0.7 in the experiment on HSV-2 (MS strain) (started +6h) and 3.4 in the experiment with HSV-2 (MS strain) (started +24h). Also, the “P-Value for Mean Peak Lesion Score” value in the experiment on HSV-2 (MS strain) (started +6h) is under 0.001.
